# Source: patent US20120035180A1, “PHARMACEUTICAL COMPOSITION FOR TREATING CANCER COMPRISING CHLORIN E6-FOLIC ACID CONJUGATE COMPOUND AND CHITOSAN” (priority 2009, published 2012)
# Tests used:
# [1] = test system: transporter of restored vectors (TRV); conditions: cited from earlier work
# Hela cells [2] = assay: Accumulation in Hela cells; format: cell-based; conditions: 2×10^−7 M/l, 37° C.
# Protocol: The cellular accumulation and the targeted delivery of the photoactive compounds were investigated using Hela cells, which is one of the numerous tumor cell types that overexpress folate receptors.
# Cells were cultivated for 3 days in medium 199, and transferred to Hank's solution/medium 199 (9/1). After 3 hours, the cell were collected by trypsin treatment from the substrate and placed in Hank's solution (10^5 κπ/ml). To cell suspensions, chlorin e6 conjugates were added at a concentration of 2×10^−7 M/l, and incubated at 37° C. After 1, 5, 10, 15, and 24 hours, the samples were centrifuged, the pellet was washed with the cooled Hank's solution, and transferred to Hank's solution at a concentration being equal to that in the initial suspension.
# HeLa tumor cells = assay: Cytotoxicity (antiproliferative assay) in the absence of light exposure; format: cell-based; conditions: 24 hr incubation
# Protocol: Cytotoxicity was analyzed, considering the intensity of proliferative processes in cells, photosensitizer concentration, and dose of optical power. For each point, 3 flasks with cell monolayer were used.
# The monolayer culture of HeLa tumor cells was chosen and used as the cell.
# The culture of HeLa tumor cells was grown in nutrient medium 199 or in nutrient medium containing hemohydrolyzate supplemented with 10% fetal bovine serum and […] of kanamycin.
# On day 4 after the cell culture was inoculated in the flasks (100,000 cells per 2.0 ml of nutrient medium), the photosensitizer was added at a concentration of 1, 2.5, 5.0, 10.0, 20.0, or 30.0 mg/ml.
# Flasks with light-protective cover (dark cytotoxicity) were incubated at 37.5° C. for 1 hour. The cells were washed with Hank's solution 4 times. 2.0 ml of fresh nutrient medium were added, and the cells were irradiated at the temperature of melting ice for 5, 10, 15 or 20 mins by the light flux of a “METALAZ” laser medical device (wavelength: 627.8 nm, 578.2 or 510.6 nm) or “LD 680-2000” (wavelength: 670-690 nm), depending on the wavelength of maximum spectral absorption of the studied photosensitizer, at a dose of 40 J/cm^2. After 20-24 hours, the number of tumor cell was counted in Goriaev's chamber.
# Hela cells [3] = assay: Phototoxicity, 24 h incubation, 1.5-15 joule/cm^2; format: cell-based; conditions: 670-690 nm
# Protocol: In other experiment, the cells were incubated with photosensitizers at 37° C. for 24 hours, and irradiated by exposed on ice by a laser medical device “LD 680-2000” (wavelength of 670-690 nm) in a dose of 1.5-15 joule/cm^2.
# HeLa cell culture = assay: Phototoxicity (photodynamic activity), 3.5 h incubation, 3.3 joule/cm^2; format: cell-based; set-up: number of HELA cells (relative to the control): unit not given here; conditions: incubation 3.5 hours
# Protocol: To examine the photodynamic effects of a photosensitizer on a HeLa cell culture, the photosensitizer solution was added to the nutrient media at a final concentration of 0.1, 0.5, 1.0, 5.0 or 10 mcg/ml on day 3 after transplanting the cell culture into flasks. The flasks were wrapped with a light protecting cover, and incubated at 37° C. for 3.5 hours. Then, the cells were washed with Hank's solution, and exposed on ice by a laser medical device “LD 680-2000” (wavelength: 670-690 nm) at a dose of 3.3 joule/cm^2. After 20-24 hours, the available cell monolayer was dispersed using a 0.02%-Versene solution, and the number of tumor cells was calculated in Goriaev's chamber. For each point, 3 flasks were used.
SMILES,affinity of the carrier (TRV) [1],concentration in Hela cells (Hela cells [2]; incubation time 1 hours) [relative units/10^4cl.],concentration in Hela cells (Hela cells [2]; incubation time 5 hours) [relative units/10^4cl.],concentration in Hela cells (Hela cells [2]; incubation time 10 hours) [relative units/10^4cl.],concentration in Hela cells (Hela cells [2]; incubation time 15 hours) [relative units/10^4cl.],concentration in Hela cells (Hela cells [2]; incubation time 24 hours) [relative units/10^4cl.],cell survival rates (HeLa tumor cells),phototoxicity / photosensitivity in survival test (Hela cells [3]),"number of HELA cells (relative to the control) (HeLa cell culture; photoexposure 3.3 joule/cm^2, conc. 0.1 mcg/ml)","number of HELA cells (relative to the control) (HeLa cell culture; photoexposure 3.3 joule/cm^2, conc. 0.5 mcg/ml)","number of HELA cells (relative to the control) (HeLa cell culture; photoexposure 3.3 joule/cm^2, conc. 1.0 mcg/ml)","number of HELA cells (relative to the control) (HeLa cell culture; photoexposure 3.3 joule/cm^2, conc. 5.0 mcg/ml)","number of HELA cells (relative to the control) (HeLa cell culture; photoexposure 3.3 joule/cm^2, conc. 10.0 mcg/ml)"
"Nc1nc(O)c2nc(CNc3ccc(C(=O)N[C@@H](CCC(=O)O)C(=O)O)cc3)cnc2n1 [folic acid, N-[4(2-Amino-4-hydroxypteridin-6-ylmethylamino)benzoyl]-L(+)-glutamic acid]",about 200 μM,–,–,–,–,–,–,–,–,–,–,–,–
"C=Cc1c(C)c2cc3nc(c(CC(=O)O)c4[nH]c(cc5nc(cc1[nH]2)C(C)=C5CC)c(C)c4C(=O)O)C(CCC(=O)O)C3C (stereo not drawn) [chlorin e6, 13-carboxy-17-[2-carboxyethyl]-15-carboxymethyl-17,18-trans-dihydro-3-vinyl-8-ethyl-2,7,12,18-tetramethylporphyrin]",–,0.86,1.45,1.72,0.81,0.40,about 90%,little phototoxicity,87.1,83.6,64.7,19,3.8
